pIC50: −log10 of the molar value. Like-named read-outs stand apart in the source and are kept apart here. One block for each compound: values may come before it.
Tests used:
[1] = cited from earlier work; for antioxidant activity IC50: compared to propyl gallate, ref [78]; for free radical scavenging activity IC50: compared to trolox, ref [79]
α-glucosidase = conditions: cited from earlier work
protein glycation = system: protein glycation; set-up: method as in PMID 23270944; conditions: at concentration of 3 µg/mL; ref [83]; cited from earlier work
[2] = DPPH radical scavenging assay; conditions: mean ± SD, n=3
Protocol: The antioxidant activity of the yellow flag extracts was determined using DPPH scavenging assay in accordance with Shimamura et al. with minimal adjustments. The reaction mixture in 96 well culture plate contained. […] After 20 min of incubation of the reaction mixture at 25 °C. The degree of bleaching of the violet tint of DPPH depends on the ability of I. pseudacorus extracts for hydrogen/electron donation and was measured spectrophotometrically at 520 nm of wavelength. Noteworthy, trolox (an artificial anti-oxidant agent) was used as a positive control. The percentage of antioxidant capacity of the yellow flag extracts equals to [ Ac-As/Ac ] *100 Where Ac, As represents the control absorbance and the I. pseudacorus extract absorbance, respectively. The graph was plotted and the inhibitory concentration 50 (IC50) value was calculated. DPPH and enzyme inhibitory assays were carried out in triplicates, and the values were expressed as mean ± standard deviation. For the determination of the in vitro antioxidant, tyrosinase, lipase, and α-glucosidase inhibition potential, the (IC50) was estimated from the graph plots of the dose–response curves at each sample concentration by GraphPad Prism software (San Diego, CA, USA). The IC50 was defined as the concentration of the sample required to inhibit 50% of the tested enzyme activity.

pancreatic lipase [3] = molecular target: T1, pancreatic lipase (Sus scrofa, UniProt P00591); experiment: pancreatic lipase enzyme inhibition assay (4MUFO substrate); assay type: biochemical, porcine; conditions: mean ± SD, n=3
T1 construct: purchased Sigma Aldrich, Japan
T1 sequence (P00591 1-450): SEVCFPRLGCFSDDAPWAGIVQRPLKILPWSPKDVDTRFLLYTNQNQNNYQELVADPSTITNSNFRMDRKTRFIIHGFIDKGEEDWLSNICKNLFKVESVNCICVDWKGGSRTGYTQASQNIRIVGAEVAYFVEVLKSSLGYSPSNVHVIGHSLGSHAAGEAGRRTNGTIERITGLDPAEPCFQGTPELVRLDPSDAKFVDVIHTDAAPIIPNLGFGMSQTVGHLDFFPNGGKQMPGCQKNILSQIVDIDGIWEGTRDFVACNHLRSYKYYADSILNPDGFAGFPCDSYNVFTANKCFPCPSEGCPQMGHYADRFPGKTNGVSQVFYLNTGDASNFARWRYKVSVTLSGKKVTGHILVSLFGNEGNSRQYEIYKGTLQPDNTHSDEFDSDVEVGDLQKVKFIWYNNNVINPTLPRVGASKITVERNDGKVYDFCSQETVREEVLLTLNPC
Description: 2, 2-Diphenyl-1-picrylhydrazyl (DPPH), pancreatic lipase enzyme from porcine animal, tyrosinase enzyme from mushroom plant and α-glucosidase enzyme from Saccharomyces cerevisiae fungi were purchased from the Sigma Aldrich, Japan. Arbutin and aluminum chloride (III) were obtained from Nacalai Tesque, Japan. Cetilistat was purchased from Combi-Blocks, United States of America. Acarbose and Trolox were obtained from Wako Pure Chemical Industries, Japan. Methanol was purchased from Al-Nasr Pharmaceutical Company, Egypt.
The anti-hyperlipidemic potential of yellow flag extracts was conducted by Bitou et al. method with minor alterations. In an ELISA microplate reader, pancreatic lipase solution (50 μL at pH 7.4) in phosphate buffer (100 μg/mL, 0.2 M) was added together with 50 μL of I. pseudacorus extract at a concentration ranging from 1.56 to 100 μg/mL. After 10 min of incubation at 25 °C. […] The quantity of 4-methylumbelliferone liberated by the lipase enzyme was measured fluorometrically using a spectrophotometer at 355 nm excitation wavelength and 460 nm emission wavelength. […] The percentage of lipase inhibition was calculated using the following equation: [1- As/Ac ]*100], where As and Ac symbolize I. pseudacorus extract and […] absorbances. […]
DPPH and enzyme inhibitory assays were carried out in triplicates, and the values were expressed as mean ± standard deviation. […]

pancreatic lipase [4] = conditions: cited from earlier work
[5] = system: Chinese hamster lung fibroblast (V79-4) cells; set-up: method as in PMID 16102749; conditions: V79-4 cells exposed to hydrogen peroxide; ref [77]; cited from earlier work
[6] = set-up: method as in PMID 26799817; conditions: compared to trolox; ref [80]; cited from earlier work
rats = conditions: pre-administration in rats (5 and 10 mg/kg); ref [91]; cited from earlier work
[7] = compared with acarbose, ref [6]

Compound: CCCOC(=O)c1cc(O)c(O)c(O)c1 [propyl gallate, reference compound]
antioxidant activity IC50 [1]: 6.72 µg/mL

Compound: COc1ccccc1-c1coc2cc(O)c(OC)c(O)c2c1=O [5,7-Dihydroxy-2',6-dimethoxyisoflavone]
α-glucosidase IC50 (α-glucosidase; compared to acarbose, ref [83]): 0.321 ± 0.008 µg/mL
protein glycation % inhibition (protein glycation): 70.41%

Compound: C[C@@H]1O[C@@H](OC[C@H]2O[C@@H](Oc3c(-c4ccc(O)c(O)c4)oc4cc(O)cc(O)c4c3=O)[C@H](O)[C@@H](O)[C@@H]2O)[C@H](O)[C@H](O)[C@H]1O [rutin, reference compound]
protein glycation % inhibition (protein glycation): 82.50%

DPPH IC50 [2]: 14.59 µg/mL
Compound: Cc1c(C)c2c(c(C)c1O)CCC(C)(C(=O)O)O2 (stereo not drawn) [Trolox, reference compound]
free radical scavenging activity IC50 [1]: 17.3 µg/mL

pIC50 (pancreatic lipase [3]): 4.73
Compound: CCCCCCCCCCCCCCCCOc1nc2ccc(C)cc2c(=O)o1 [Cetilistat]

Compound: Schaftoside [Schaftoside (18)]
pancreatic lipase % inhibition (pancreatic lipase [4]; at a concentration of 250 μg/mL, ref [88]): 95.5%
pancreatic lipase IC50 (pancreatic lipase [4]; compared with orlistat, ref [88]): 130 µg/mL

Compound: O=c1cc(-c2ccc(O)cc2)oc2cc(O)c([C@@H]3O[C@H](CO)[C@@H](O)[C@H](O)[C@H]3O)c(O)c12 [Isovitexin (43), Isovitexin]
α-glucosidase IC50 (α-glucosidase; [7]): 6.7 µg/mL

Compound: COc1c(O)cc2occ(-c3ccc(O)cc3)c(=O)c2c1O [Tectorigenin (31), Tectorigenin]
intracellular free radical scavenging and lipid peroxidation [5]: scavenged intracellular free radicals and reduced lipid peroxidation

Compound: O=c1cc(-c2ccc(O)cc2)oc2c([C@@H]3O[C@H](CO)[C@@H](O)[C@H](O)[C@H]3O)c(O)cc(O)c12 [Vitexin (42), Vitexin]
free radical scavenging activity IC50 [1]: 31.4 µg/mL
α-glucosidase IC50 (α-glucosidase; [7]): 4.1 µg/mL

Compound: COc1ccc(-c2coc3cc(O)c(OC)c(O)c3c2=O)cc1 [Irisolidone (34), Irisolidone]
antioxidant activity IC50 [1]: 12.62 µg/mL

Compound: O=c1c(-c2ccc(O)cc2)coc2cc(O)cc(O)c12 [Genistein (30), Genistein]
DPPH IC50 [6]: 1.89 ± 0.16 µg/mL
α-glucosidase IC50 (α-glucosidase; compared with acarbose, ref [85]): 40.09 ± 0.94 µg/mL

Compound: Kaempferol-O-deoxyhexosyl hexoside (Kaempferol-O-rutinoside) [Compound 21]
pancreatic lipase IC50 (pancreatic lipase [4]; compared to orlistat, ref [90]): 1.7 ± 0.30 µg/mL

Compound: O=c1c(O)c(-c2ccc(O)c(O)c2)oc2cc(O)cc(O)c12 [Quercetin (38), Quercetin]
rat fat absorption (rats): remarkable decrease in rat fat absorption

— publication PMC10063562, “Metabolic profiling, antioxidant, and enzyme inhibition potential of Iris pseudacorus L. from Egypt and Japan: A comparative study” (Scientific Reports, 2023)
